Entries after “also recorded” stand apart in the source; their conditions may differ. Like-named read-outs stand apart in the source and are kept apart here.
Tests used:
MDA 468 = assay: MTT assay, 3 day exposure, MDA 468; format: cell-based; settings: Homo sapiens, MDA 468 (breast), read-out: GI50 values in cell lines, MDA 468
Description: (§1) A range of compounds were evaluated in MTT assays following 3 day exposure against a panel of two human breast cancer cell lines MCF-7 (ER+) and MDA 468 (ER−), and two colon cancer cell lines KM12 and HCC 2998. In general the breast cell lines were more sensitive to the agents and the MDA 468 line the most sensitive of the four (Table 2). The benchmark active compound was 5-fluoro-2-(3,4-dimethoxyphenyl)benzothiazole (1) with GI50 values<0.1 nM against the two breast cell lines. […] The most interesting series of compounds were those combining a 5-fluoro group with two oxygenated substituents in the 3′,4′-positions where minor, seemingly conservative, structural changes were associated with a dramatic variations in activity (when compared to 1). […] In summary, this in vitro screen led to the identification of the fluorinated 2-(3,4-dimethoxyphenyl)benzothiazole structure as a novel antitumor pharmacophore with the 5-fluoro analogue (1) astride a pinnacle of activity.
(§2) The assays/methods used to generate the results referred to herein are well known to those skilled in the art and therefore it has not been necessary to describe them in detail.

KM 12 = assay: MTT assay, 3 day exposure, KM12; format: cell-based, human; settings: Homo sapiens, KM12, 72 h, KM 12 (colon), MTT, 3 day exposure, triplicate; read-out: GI50 values in cell lines, KM 12
Description: as §1, §2

MCF-7 [1] = assay: Growth inhibition alone or in combination with resveratrol, MCF-7; format: cell-based, human; settings: MCF-7 (cyp lal-inducible), resveratrol 51 μM
Description: The results shown in FIGS. 3a and 3b were generated using MCF-7 (FIG. 3a) and HCC 2998 (FIG. 3b) cells. The said cells were treated with DF 203 or compound 1, alone or in combination with resveratrol (51 μM) an inhibitor of cyp lal activity. It can be seen that in MCF-7 cells (cyp lal-inducible) the activity of DF 203 was abolished.

HCC 2998 = assay: MTT assay, 3 day exposure, HCC 2998; format: cell-based; settings: Homo sapiens, HCC 2998, 72 h, HCC 2998 (colon), MTT, 3 day exposure, triplicate; read-out: GI50 values in cell lines, HCC 2998
Description: as §1, §2

MCF-7 [2] = assay: MTT assay, 3 day exposure, MCF-7; format: cell-based; settings: Homo sapiens, read-out: GI50 values in cell lines, MCF-7
Description: as §1, §2

[3] = tested on: NCI in vitro 60 human cancer cell panel; assay: NCI in vitro 60 human cancer cell panel, sulforhodamine B assay; format: cell-based; settings: for sensitivity of cancer cell panels / antitumour activity in vitro: NCI mean GI50 graphs, FIGS. 1 and 8 to 12
Description: Results from the more extensive NCI in vitro 60 human cancer cell panel^15 corroborated the results (above). The mean GI50 values across the range of compounds (above), including the two series of esters (11-21) are an unremarkable 10-100 μM (data not shown); however, these values disguise significant cell selectivity. […] Full NCI mean GI50 graphs for compounds (1,2,3,4,101,102) are included herein as FIGS. 1 and 8 to 12.
The results shown on FIG. 1 were generated by treating the cells with an active agent for 48 hours, in this case compound 1, before determination of viability by sulforhodamine B assay.

MCF-7 [4] = settings: aminophenyl benzothiazole sensitive cells with inducible cyp lal; Hose et al 2003; cited from earlier work
[5] = tested on: MCF-7, MDA 468, KM12 and HCC 2998; assay: MTT assay, panel of four cell lines, results in words; format: cell-based, human; settings: compared to compound 1
Description: as §1

cyp lbl = assay: Induction of cyp lbl gene transcription; format: cell-based
cyp lal [6] = target: T1, cyp lal (Homo sapiens, UniProt P04798); assay: Inhibition of cyp lal (EROD) activity, de-ethylation of ethoxyresorufin by cyp lal microsomes; format: biochemical
T1 construct: host or cells: microsomes
T1 sequence (P04798 1-512): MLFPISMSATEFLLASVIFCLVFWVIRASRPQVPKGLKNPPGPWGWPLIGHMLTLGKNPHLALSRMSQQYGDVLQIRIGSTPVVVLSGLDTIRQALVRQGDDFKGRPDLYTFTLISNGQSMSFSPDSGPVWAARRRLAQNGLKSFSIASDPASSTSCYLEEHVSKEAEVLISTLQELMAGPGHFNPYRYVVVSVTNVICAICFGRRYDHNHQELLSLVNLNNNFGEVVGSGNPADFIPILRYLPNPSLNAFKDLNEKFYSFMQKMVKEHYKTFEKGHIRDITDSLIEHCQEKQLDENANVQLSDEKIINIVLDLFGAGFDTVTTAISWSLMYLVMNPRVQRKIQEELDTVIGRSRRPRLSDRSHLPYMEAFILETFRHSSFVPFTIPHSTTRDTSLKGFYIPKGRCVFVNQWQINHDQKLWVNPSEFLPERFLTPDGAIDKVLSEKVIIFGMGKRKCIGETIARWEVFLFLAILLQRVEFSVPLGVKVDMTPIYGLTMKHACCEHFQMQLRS
Description: Compound 1 inhibits cyp lal (EROD) activity in a dose dependent manner (IC50=8 μM; FIG. 4).
The results shown in FIG. 4 were generated by measuring the de-ethylation of ethoxyresorufin by cyp lal microsomes in the absence and the presence of increasing concentrations of compound 1. DF 203 was used as a positive control.

cyp lal [7] = assay: Induction of cyp lal gene transcription; format: cell-based
Description: These cell lines are known to be sensitive to compound 1 and 2-(4-amino-3-methylphenyl)-5-fluorobenzothiazole (102, 5F 203; NSC 703786; WO 95/06469) In cell lines which are sensitive to compound 1 only, cyp lal gene transcription was not induced.
The results shown in FIG. 2 were generated by treating the cells with 1 μM of an active agent for 24 hours before determination of changes in cyp lal gene expression.

cyp lal [8] = assay: Induction of cyp lal protein expression by Western Blot; format: cell-based
Description: These findings have been verified following examination of induction of cyp lal protein expression by Western Blot. The following cell lines were used to represent sensitive models: MCF-7, MDA 468 (breast carcinoma), KM12 and HCC 2998 (colon carcinoma) lines.

[9] = 72 h, MTT, 3 day exposure, triplicate
[10] = MCF7, 72 h, MCF-7 (breast), MTT, 3 day exposure, triplicate

Row | SMILES | GI50 (MDA 468; [9]) | GI50 (KM 12) | GI50 (HCC 2998) | GI50 (MCF-7 [2]; [10]) | sensitivity of cancer cell panels / antitumour activity in vitro [3] | growth inhibitory potency in words [5] | melting point | also measured
1 | Cc1cc(-c2nc3ccccc3s2)ccc1N [Compound 101, 2-(4-amino-3-methylphenyl)benzothiazole, reference compound] | < 0.1 nM | > 100000 nM | > 100000 nM | < 0.1 nM | ovarian and breast cancer cells are particularly sensitive | – | – | effect of resveratrol on growth inhibitory activity (MCF-7 [1]): block the activity; effect of resveratrol on growth inhibitory activity (MCF-7 [1]; listed as DF 203): abolished
2 | Cc1cc(-c2nc3cc(F)ccc3s2)ccc1N [Compound 102, 2-(4-amino-3-methylphenyl)-5-fluorobenzothiazole, reference compound] | < 0.1 nM | > 100000 nM | > 100000 nM | < 0.1 nM | non-small cell lung, ovarian, renal and breast cancel cells to be particularly sensitive | – | – | effect of resveratrol on activity (MCF-7 [4]): block the activity
3 | COc1cc(OC)cc(-c2nc3cc(F)ccc3s2)c1 [Compound 42, 5-Fluoro-2-(3,5-dimethoxyphenyl)benzothiazole] | 310 nM | 7550 nM | 5210 nM | 1230 nM | – | only low micromolar inhibitory potency | 115 °C | –
4 | COc1ccc(-c2nc3cc(F)ccc3s2)cc1OC [Compound 1, 2-(3,4-dimethoxyphenyl)-5-fluorobenzothiazole] | < 0.1 nM | 290 nM | 0.25 nM | < 0.1 nM | – | – | – | induction of cyp lbl gene transcription (cyp lbl): can be induced; induction of cyp lbl transcription (cyp lbl; certain compound 1-sensitive colon and lung carcinoma cells): no induction of cyp-lbl transcription; IC50 (cyp lal [6]): 8000 nM; induction of cyp lal gene transcription (cyp lal [7]; MCF-7, T-47D, TK-10, NC1 and 1460 cells, 1 μM, 24 hours): able to induce cyp lal gene transcription; induction of cyp lal gene transcription (cyp lal [7]; cell lines which are sensitive to compound 1 only): not induced; GI50 (MDA 468; value in nM): < 0.1 nM; induction of cyp lal protein (cyp lal [8]; colon cell lines KM12 and HCC 2998): not induced; induction of cyp lal protein (cyp lal [8]; lysates of MCF-7 and MDA 468 breast cells): Induction of cyp lal protein was observed; GI50 (MCF-7 [2]; MCF7, MCF-7 (breast), value in nM): < 0.1 nM; GI50 ([3]; Homo sapiens, colon and NSCL sub-panels, 48 hours, read-out: GI50 values against some cell lines): < 10 nM
5 | COCOc1ccc(-c2nc3cc(F)ccc3s2)cc1OC [Compound 44, 5-Fluoro-2-(3-methoxy-4-methoxymethyloxyphenyl)benzothiazole] | 48 nM | 19200 nM | 53500 nM | 65 nM | – | dyschemotherapeutic effect | 101 to 102 °C | –
6 | Fc1ccc2sc(-c3ccc4c(c3)OCO4)nc2c1 [Compound 7, 5-Fluoro-2-(3,4-methylenedioxyphenyl)benzothiazole] | 570 nM | 25100 nM | 22300 nM | 20700 nM | – | dyschemotherapeutic effect | 161 to 164 °C | –
7 | CCOc1cc(-c2nc3cc(F)ccc3s2)ccc1OC [Compound 45, 2-(3-Ethoxy-4-methoxyphenyl)-5-fluorobenzothiazole] | 92 nM | 5420 nM | 3320 nM | 80 nM | – | dyschemotherapeutic effect | 136 to 139 °C | –
8 | COc1ccc(-c2nc3cc(F)ccc3s2)cc1O [Compound 5, 5-Fluoro-2-(3-hydroxy-4-methoxyphenyl)benzothiazole] | 50 nM | 18400 nM | 7600 nM | 500 nM | – | dyschemotherapeutic effect | 169 to 172 °C | –
9 | COc1ccc(-c2nc3ccc(F)cc3s2)cc1OC [Compound 3, 6-Fluoro-2-(3,4-dimethoxyphenyl)benzothiazole] | 5 nM | 24100 nM | 6210 nM | 62 nM | reduced activity against cancer cells when compared to compound 1; also recorded: demonstrates antitumour activity in vitro; also recorded: potent (but attenuated compared to 1), activity in the colon and NSCL sub-panels | retained nanomolar growth inhibitory potency against one or more of the cell lines | 153 to 155 °C | –
10 | COc1ccc(-c2nc3ccccc3s2)cc1OC [Compound 4, 2-(3,4-Dimethoxyphenyl)benzothiazole] | 530 nM | – | – | – | no cancer cells to be particularly sensitive; also recorded: attenuated pattern of activity | retained sub-micromolar activity against MDA 468 | 141 to 143 °C | –
11 | COc1cc(-c2nc3cc(F)ccc3s2)cc(OC)c1OC [Compound 43, 5-Fluoro-2-(3,4,5-trimethoxyphenyl)benzothiazole] | 2.1 nM | 13000 nM | 21100 nM | 1.9 nM | – | retained nanomolar inhibitory potency against the MCF-7 cell and MDA 468 cell lines | 120 to 122 °C | –
